Measurements from patent US8975246B2, “Bile acid or bile salt fatty acid conjugates” (Galmed Research and Development Ltd., priority 2001, dated 2015).

System: Inbred C57J/L mice
Test: Liver lipid/protein ratio, mice on high fat lithogenic diet
Type: in vivo
Conditions: BAFAC 150 mg/Kg daily by gavage, 5 weeks
Protocol: Inbred C57J/L mice, 4 weeks old and weighing approx. 20 gm (Jackson Lab. Maine, USA) were used. They were fed for 5 weeks a high fat lithogenic diet consisting of: Cholesterol 1%, Cholic Acid 0.5%, lard 10%, butter 6%, palmitic acid 1.2% and corn oil 2% added (w/w) to their regular diet. In addition to the diet the animals were given daily, by gavage, either a BAFAC (150 mg/Kg) suspended in saline or an equal volume of saline only. The BAFACs were conjugates of cholic acid (at position 3) with either Palmitic Acid (C-16) or Arachidic Acid (C-20) or Behenic Acid (C-22) using an amide bond. The controls (n=5) received saline, the test animals received either the C-16 conjugate (n=5), the C-20 conjugate (n=5) or the C-22 conjugate (n=3). After 5 weeks, following an overnight fast, the animals were anesthetized using ketamine, the liver was removed, and the animals were sacrificed by ketamine overdose. A 0.5 gm sample of liver was homogenized in 5 ml of buffered saline. Liver lipids were extracted from the homogenate by the Folch method using chloroform:methanol (2:1, vol/vol). Half a ml of the homogenate were extracted in 5 ml of the Folch solution. After evaporation of the solvent the lipids were weighed and reevaporated several times until constant weight was obtained. The proteins were quantified in another aliquot of the homogenate according to the method of Bradford. (Bradford M. M., Annal Biochem. 1976, 72:248).
The lipid protein ratio (mg/mg) was calculated. The results for each group are given as means (+St. Dev.) The group values were: […]

With CCCCCCCCCCCCCCCC(=O)NC1CCC2(C)C(C1)CC(O)C1C2CC(O)C2(C)C(C(C)CCC(=O)O)CCC12 (centres unmarked) [C-16 BAFAC] the “lipid protein ratio in liver, mean (+St. Dev.)” value was 2.25 ± 1.20 mg/mg.
CCCCCCCCCCCCCCCCCCCCCC(=O)NC1CCC2(C)C(C1)CC(O)C1C2CC(O)C2(C)C(C(C)CCC(=O)O)CCC12 (centres unmarked) [C-22 BAFAC] was tested, and the “lipid protein ratio in liver, mean (+St. Dev.)” value was 3.00 ± 1.08 mg/mg.
